What all share (format): physicochemical
The nature of data set [1]: Maximum absorption wavelength and gram absorption coefficient, toluene solution 0.01 g/L (first embodiment). Conditions: optical path length 10 mm. The protocol: The maximum absorption wavelength of the benzotriazole compound of the first embodiment is measured using a spectrophotometer (for example, Shimadzu Spectrophotometer UV-1600 manufactured by Shimadzu Corporation) at an optical path length of 10 mm using a toluene solution having a concentration of 0.01 g/L.
In Examples according to the first embodiment, the maximum absorption wavelength and the gram absorption coefficient of the benzotriazole compound were measured using a Shimadzu Spectrophotometer UV-1600 manufactured by Shimadzu Corporation at an optical path length of 10 mm using a toluene solution having a concentration of 0.01 g/L.

Data set [2] can be described thus: Heat resistance: TG5% decomposition temperature. Conditions: nitrogen atmosphere, heating rate 10° C./min; for T-5% by mass: Table 2; for Decomposition temperature (Tg-5% by mass): Table 6. The protocol:
In each Example and Comparative Example, the decomposition temperature was measured by the following method.
Using a thermal analyzer Rigaku ThermoPlus Evo TG8120, the TG5% decomposition temperature (T-5% by mass) was measured under a nitrogen atmosphere at a heating rate of 10° C./min and a temperature range of from room temperature to 500° C.
The higher the T-5% by mass, the higher the heat resistance.
The decomposition temperature of the benzotriazole compound obtained in each Example and Comparative Example was measured by the following method.

Data set [3] can be described thus: Solubility to various organic solvents. Conditions: room temperature; for Solubility to various organic solvents: PGMEA / Solubility to various organic solvents: Ethyl acetate / Solubility to various organic solvents: MEK / Solubility to various organic solvents: MMA / Solubility to various organic solvents: Toluene: Table 1. The protocol:
As Comparative Example 1, the solubility of TINUVIN326 (manufactured by BASF Japan Ltd.) represented by the following Formula (TI) was measured by the following method.
To 0.5 g of the benzotriazole compound, the various organic solvents shown in Table 1 were added such that the total mass was about 10 g, the mixture was irradiated with ultrasonic waves for about 30 minutes, and thereafter stirred at room temperature for 2 hours to prepare a dispersion of about 10% by mass.
The dispersion was filtered through a membrane filter (0.2 μm), and the obtained residue was dried in a dryer at 60° C. for 1 hour, and then the mass of the residue was measured.
The solubility of the benzotriazole compound to the solvent was expressed by the following formula. Solubility (% by mass)=(W0−W1)/W0
W0 is the mass of the benzotriazole compound before the treatment, and W1 is the mass of the residue after drying (that is, the dissolution residue of the benzotriazole compound). In a case in which no residue remained on the filter, the solubility was determined as 5% by mass or more.
The solubility of the benzotriazole compound obtained in each Example and Comparative Example was measured by the following method.
To 0.5 g of the benzotriazole compound, the various organic solvents shown in Table 6 were added such that the total mass was about 10 g, the mixture was irradiated with ultrasonic waves for about 30 minutes, and thereafter stirred at room temperature for 2 hours to prepare a dispersion of about 10% by mass.

Take `O=C1CCc2cc(-n3nc4ccc(Cl)cc4n3)c(O)cc2N1` [Compound (105)]: in data set [1], the gram absorption coefficient is 7.28×10^4 g/mL·cm and the maximum absorption is given as 365.5 nm.
Take `CCN(CC)C(=O)Nc1ccc(-n2nc3ccc(Cl)cc3n2)c(O)c1` [Compound (81)]: in data set [1], the gram absorption coefficient was 1.07×10^5 g/mL·cm and the maximum absorption was 372.5 nm. In addition, the T-5% by mass in data set [2] was found to be 230.1 °C.
Regarding `CCCCC(CC)C(=O)Nc1ccc(-n2nc3ccc(Cl)cc3n2)c(O)c1` (stereo not drawn) [Compound (56)], in data set [3] (PGMEA), the “Solubility to various organic solvents: PGMEA” value is listed as 0.8 % by mass. Besides, in data set [3] (ethyl acetate), the “Solubility to various organic solvents: Ethyl acetate” value (shortened to “Solubility … Ethyl acetate”) turned out to be 0.8 % by mass. Besides, in data set [3] (methyl ethyl ketone), the “Solubility to various organic solvents: MEK” value is listed as 2 % by mass. Moreover, in data set [3] (methyl methacrylate), the “Solubility to various organic solvents: MMA” value amounted to 1.2 % by mass. Also, the “Solubility to various organic solvents: Toluene” value in data set [3] (toluene) is 0.2 % by mass. In addition, in data set [1], the gram absorption coefficient is on record as 7.48×10^4 g/mL·cm and the maximum absorption worked out at 359.0 nm. Besides, the T-5% by mass in data set [2] worked out at 312.7 °C.
For the molecule `CC(C)(C)c1ccc(CSc2ccc3nn(-c4ccc(NC(=O)C5CCCCC5)cc4O)nc3c2)cc1` [Compound (104)], in data set [1], the gram absorption coefficient is listed as 6.90×10^4 g/mL·cm and the maximum absorption worked out at 371.0 nm. In addition, the T-5% by mass in data set [2] amounted to 313.1 °C.
For the molecule `CCCCC(CC)C(=O)Nc1ccc(-n2nc3ccc(Sc4ccccc4)cc3n2)c(O)c1` (stereo not drawn) [Compound (112)], the “Solubility to various organic solvents: PGMEA” value in data set [3] (PGMEA) is given as 2 or more % by mass. The “Solubility … Ethyl acetate” value in data set [3] (ethyl acetate) was 3 or more % by mass. In addition, the “Solubility to various organic solvents: MEK” value in data set [3] (methyl ethyl ketone) is 10 or more % by mass. Also, in data set [3] (methyl methacrylate), the “Solubility to various organic solvents: MMA” value is 4 or more % by mass. In data set [3] (toluene), the “Solubility to various organic solvents: Toluene” value is 1 or more % by mass. Moreover, in data set [1], the gram absorption coefficient is given as 7.47×10^4 g/mL·cm and the maximum absorption is reported as 370.0 nm. In data set [2], this molecule came in with a T-5% by mass of 368.0 °C.
Consider `CCCCCCC(=O)N(c1ccccc1)c1ccc(-n2nc3ccc(Cl)cc3n2)c(O)c1` [Compound (22)], for which, in data set [1], the gram absorption coefficient is 6.1×10^4 g/mL·cm and the maximum absorption stood at 355 nm.
`Cc1cc(-n2nc3ccc(Cl)cc3n2)c(O)c(C(C)(C)C)c1` [TINUVIN326, 2-(5-chloro-2-benzotriazol)-6-tert-butyl-p-cresol, reference compound]: the “Solubility to various organic solvents: PGMEA” value in data set [3] (PGMEA) is listed as 1 % by mass. Also, the “Solubility … Ethyl acetate” value in data set [3] (ethyl acetate) is 3 % by mass. In data set [3] (methyl ethyl ketone), the “Solubility to various organic solvents: MEK” value is 3 % by mass. Also, in data set [3] (methyl methacrylate), the “Solubility to various organic solvents: MMA” value was found to be 5 % by mass. For the same molecule, the “Solubility to various organic solvents: Toluene” value in data set [3] (toluene) is recorded as 5 or more % by mass. Also, the “Solubility: PGMEA” value in data set [3] (Table 6, PGMEA) worked out at 1 % by mass. In addition, the “Solubility: EA” value in data set [3] (Table 6, ethyl acetate) was determined as 3 % by mass. In addition, in data set [3] (Table 6, methyl ethyl ketone), the “Solubility: MEK” value was 3 % by mass. Also, the “Solubility: MMA” value in data set [3] (Table 6, methyl methacrylate) came to 5 % by mass. Also, in data set [3] (Table 6, toluene), the “Solubility: Toluene” value is 5≤ % by mass. In addition, the T-5% by mass in data set [2] was 219.2 °C. The results for the “Decomposition temperature (Tg-5% by mass)” value in data set [2] and in data set [2] (listed as Comparative Example 1C) were 219.2 °C and “lower than that of Examples”, respectively.
Consider `CCC(C)(C)C(=O)Nc1ccc(-n2nc3ccc(Sc4ccc(C(C)(C)C)cc4)cc3n2)c(O)c1` [Compound (101)], for which, in data set [3] (PGMEA), the “Solubility to various organic solvents: PGMEA” value is recorded as 1 % by mass. Besides, in data set [3] (ethyl acetate), the “Solubility … Ethyl acetate” value was 1.5 % by mass. Besides, the “Solubility to various organic solvents: MEK” value in data set [3] (methyl ethyl ketone) is on record as 3 % by mass. Also, the “Solubility to various organic solvents: MMA” value in data set [3] (methyl methacrylate) is recorded as 3 % by mass. In data set [3] (toluene), the “Solubility to various organic solvents: Toluene” value was determined as 1 % by mass. For the same molecule, in data set [1], the gram absorption coefficient is 7.02×10^4 g/mL·cm and the maximum absorption is 371.5 nm. Besides, the T-5% by mass in data set [2] amounted to 366.1 °C.
Regarding `CCCCCCC(=O)Nc1ccc(-n2nc3ccc(Sc4ccc(C(C)(C)C)cc4)cc3n2)c(O)c1` [Compound (55)], the “Solubility to various organic solvents: PGMEA” value in data set [3] (PGMEA) is listed as 5 or more % by mass. For the same molecule, in data set [3] (ethyl acetate), the “Solubility … Ethyl acetate” value is reported as 5 % by mass. In data set [3] (methyl ethyl ketone), the “Solubility to various organic solvents: MEK” value was found to be 5 % by mass. Moreover, the “Solubility to various organic solvents: MMA” value in data set [3] (methyl methacrylate) is 5 or more % by mass. Further, in data set [3] (toluene), the “Solubility to various organic solvents: Toluene” value is 2 % by mass. In data set [1], the gram absorption coefficient was 6.9×10^4 g/mL·cm and the maximum absorption was determined as 371.0 nm. In data set [2], this molecule had a T-5% by mass of 359.4 °C.
`Oc1cc(NC2CCCCC2)ccc1-n1nc2ccc(Cl)cc2n1` [Compound (4)]: in data set [1], the gram absorption coefficient is 9.76×10^4 g/mL·cm and the maximum absorption is given as 389.5 nm.
On to `CCCCC(CC)C(=O)Nc1ccc(-n2nc3ccc(Sc4ccc(C)cc4)cc3n2)c(O)c1` (stereo not drawn) [Compound (113)], for which the “Solubility to various organic solvents: PGMEA” value in data set [3] (PGMEA) is reported as 1 or more % by mass. In addition, the “Solubility … Ethyl acetate” value in data set [3] (ethyl acetate) is 1 or more % by mass. The “Solubility to various organic solvents: MEK” value in data set [3] (methyl ethyl ketone) is 2.5 or more % by mass. The “Solubility to various organic solvents: MMA” value in data set [3] (methyl methacrylate) is on record as 2 or more % by mass. Moreover, in data set [3] (toluene), the “Solubility to various organic solvents: Toluene” value was 0.5 or more % by mass. Also, in data set [1], the gram absorption coefficient is 6.98×10^4 g/mL·cm and the maximum absorption worked out at 371.5 nm. This molecule also came in with a T-5% by mass in data set [2] of 365.5 °C.
On to `O=C(Nc1ccc(-n2nc3ccc(Cl)cc3n2)c(O)c1)C1CCCCC1` [Compound (103)], for which, in data set [1], the gram absorption coefficient is 8.48×10^4 g/mL·cm and the maximum absorption is reported as 359.0 nm. Further, the T-5% by mass in data set [2] is 335.7 °C.
As for `CCCCC(CC)C(=O)Nc1ccc(-n2nc3ccc(Sc4ccc(C(C)(C)C)cc4)cc3n2)c(O)c1` (stereo not drawn) [Compound (58)], the “Solubility to various organic solvents: PGMEA” value in data set [3] (PGMEA) is given as 2 % by mass. Besides, in data set [3] (ethyl acetate), the “Solubility … Ethyl acetate” value was determined as 3 % by mass. In data set [3] (methyl ethyl ketone), the “Solubility to various organic solvents: MEK” value is 5 or more % by mass. In addition, in data set [3] (methyl methacrylate), the “Solubility to various organic solvents: MMA” value was 5 or more % by mass. For the same molecule, the “Solubility to various organic solvents: Toluene” value in data set [3] (toluene) came to 2 % by mass. In data set [1], the gram absorption coefficient is on record as 6.61×10^4 g/mL·cm and the maximum absorption worked out at 371.5 nm. In addition, the T-5% by mass in data set [2] is 374.7 °C.
In the case of `CC(=O)Nc1ccc(-n2nc3ccc(Cl)cc3n2)c(O)c1` [Compound (102)], in data set [1], the gram absorption coefficient is listed as 5.19×10^4 g/mL·cm and the maximum absorption worked out at 347.0 nm.
On to `CCCCCCC(=O)Nc1ccc(-n2nc3ccc(Cl)cc3n2)c(O)c1` [Compound (53)], for which the “Solubility to various organic solvents: PGMEA” value in data set [3] (PGMEA) was found to be 1 % by mass. The “Solubility … Ethyl acetate” value in data set [3] (ethyl acetate) worked out at 1 % by mass. Also, the “Solubility to various organic solvents: MEK” value in data set [3] (methyl ethyl ketone) worked out at 1 % by mass. The “Solubility to various organic solvents: MMA” value in data set [3] (methyl methacrylate) was 1 % by mass. Further, the “Solubility to various organic solvents: Toluene” value in data set [3] (toluene) came to 0.5 % by mass. For the same molecule, in data set [1], the gram absorption coefficient is recorded as 7.9×10^4 g/mL·cm and the maximum absorption is given as 359.0 nm. In data set [2], this molecule showed a T-5% by mass of 323.5 °C.
In the case of `CCCCCNc1ccc(-n2nc3ccc(Cl)cc3n2)c(O)c1` [Compound (3)], in data set [1], the gram absorption coefficient is 9.77×10^4 g/mL·cm and the maximum absorption came to 387 nm.
Take `O=C(Nc1ccc(-n2nc3ccc(Cl)cc3n2)c(O)c1)c1ccccc1` [Compound (61)]: in data set [1], the gram absorption coefficient is listed as 9.37×10^4 g/mL·cm and the maximum absorption came to 360.0 nm.

The values above are taken from US12486239B2, “Benzotriazole compound, light absorber, and resin composition” (MITSUI CHEMICALS, INC., priority 2019, dated 2025).
